Results: US9890185B2, “Urea derivatives useful as kinase inhibitors” (Respivert Limited, priority 2013, dated 2018)

What was measured:
[1] = target: p38 MAPKα isoform (MAPK14) (Homo sapiens (Human), UniProt Q16539); assay: p38 MAPKα enzyme inhibition (FRET, Z-LYTE, Method 2); type: biochemical
Method in brief: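 Z-LYTE FRET: p38 MAPKα (80 ng/mL for Method 1, 200 ng/mL for Method 2, pre-dilution) preincubated 2 hr RT with compound (4–0.004 μg/mL solutions), activity read via MAPKAP-K2 phosphorylation after 1 hr RT and 1 hr protease development. Coumarin/fluorescein ratio gives phosphorylation; % inhibition versus uninhibited control, IC50 from concentration-response curve.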

c-Src = c-Src (Homo sapiens (Human), UniProt P12931); assay: c-Src enzyme inhibition (FRET, Z-LYTE); type: biochemical
c-Src, sequence (P12931 whole entry, looked up): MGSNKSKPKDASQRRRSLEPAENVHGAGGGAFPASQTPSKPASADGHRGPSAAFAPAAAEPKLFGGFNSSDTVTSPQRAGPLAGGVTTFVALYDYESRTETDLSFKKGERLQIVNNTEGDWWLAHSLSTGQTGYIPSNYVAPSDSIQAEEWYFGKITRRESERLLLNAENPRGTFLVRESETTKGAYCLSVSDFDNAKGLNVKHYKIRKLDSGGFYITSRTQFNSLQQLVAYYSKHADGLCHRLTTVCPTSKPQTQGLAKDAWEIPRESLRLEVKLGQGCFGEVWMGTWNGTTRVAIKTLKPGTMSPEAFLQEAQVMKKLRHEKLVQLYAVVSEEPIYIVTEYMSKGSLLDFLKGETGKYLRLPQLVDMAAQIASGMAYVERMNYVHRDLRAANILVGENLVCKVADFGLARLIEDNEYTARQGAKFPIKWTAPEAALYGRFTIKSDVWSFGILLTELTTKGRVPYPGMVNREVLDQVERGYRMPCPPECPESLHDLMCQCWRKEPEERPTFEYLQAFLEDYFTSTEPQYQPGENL
Method in brief: (§1)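 Enzyme (c-Src 3000 ng/mL, Syk 2000 ng/mL, as added solutions) was preincubated with compound for 2 hr at RT, then FRET peptide and ATP (added solution 800 μM for c-Src, 60 μM for Syk) for 1 hr. Protease development 1 hr; coumarin/fluorescein emission ratio gave % inhibition, IC50 from concentration-response.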

Syk = Syk (Homo sapiens (Human), UniProt P43405); assay: Syk enzyme inhibition (FRET, Z-LYTE); type: biochemical
Method in brief: as §1

GSK 3α = GSK 3α (Homo sapiens (Human), UniProt P49840); assay: GSK 3α enzyme inhibition (FRET, Z-LYTE, Method 2); type: biochemical; conditions: read-out: IC50 Values for Enzyme Inhibition, GSK3α
GSK 3α, sequence (P49840 whole entry): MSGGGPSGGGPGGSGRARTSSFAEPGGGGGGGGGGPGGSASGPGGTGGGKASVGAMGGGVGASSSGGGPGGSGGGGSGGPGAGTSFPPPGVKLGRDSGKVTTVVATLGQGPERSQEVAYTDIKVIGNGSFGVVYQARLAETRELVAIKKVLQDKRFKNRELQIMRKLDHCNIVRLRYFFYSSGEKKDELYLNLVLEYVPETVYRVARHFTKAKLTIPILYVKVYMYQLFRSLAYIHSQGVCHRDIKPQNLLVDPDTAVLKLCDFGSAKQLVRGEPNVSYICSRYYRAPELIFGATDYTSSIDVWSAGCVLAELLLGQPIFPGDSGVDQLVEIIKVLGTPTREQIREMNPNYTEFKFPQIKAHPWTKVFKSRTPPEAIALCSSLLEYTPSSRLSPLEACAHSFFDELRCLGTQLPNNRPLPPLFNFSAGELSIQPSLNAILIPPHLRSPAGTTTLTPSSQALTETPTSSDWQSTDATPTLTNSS
Method in brief: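 Recombinant human GSK3α was preincubated with compound (stocks 4, 0.4, 0.04 or 0.004 μg/mL) at RT, 2 hr for Method 1 and 105 min for Method 2. FRET peptide (8 μM stock) and ATP (40 μM stock) were added for 1 hr, then protease development for 1 hr. IC50 was taken from concentration–response curves.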

PBMCs [2] = assay: LPS-induced IL-8 release in PBMC cells (assay b); type: cell-based, human; conditions: Homo sapiens, PBMC; LPS-stimulated PBMCs; read-out: IC50 Values for Inhibition of Cytokine Release, PBMCs IL-8
Method in brief: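 Human PBMCs from healthy donors, isolated by density gradient, were pretreated with compound for 2 h and then stimulated with 1 ng/mL LPS (E. coli 0111:B4) for 24 h at 37° C, 5% CO2. Supernatant IL-8 and TNFα were measured by sandwich ELISA, and IC50 was taken from the dose-response curve.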

PBMCs [3] = assay: IL-2 release in CD3/CD28 stimulated PBMC cells (assay c); type: cell-based; conditions: Homo sapiens, read-out: IC50 Values for Inhibition of Cytokine Release, PBMCs IL-2
Method in brief: (§2)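 Compound added to human PBMCs on anti-CD3/anti-CD28-coated wells (0.3 and 3 μg/mL respectively); 3-day culture. Sandwich ELISA of supernatant IL-2 or IFN gamma gives the read-out, with IC50 derived from the dose-response curve.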

PBMCs [4] = assay: IFN gamma release in CD3/CD28 stimulated PBMC cells (assay c); type: cell-based; conditions: Homo sapiens, read-out: IC50 Values for Inhibition of Cytokine Release, PBMCs IFNγ
Method in brief: as §2

PBMCs [5] = assay: Cell mitosis assay in PBMCs (assay g); type: cell-based; conditions: Homo sapiens, PBMC, test compound 5 μg/mL
Method in brief: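 Human PBMCs from healthy donors, stimulated with 2% PHA for 48 hr, then exposed to test compounds for 20 hr, with demecolcine (0.1 μg/mL) added 2 hr before harvest. Cells fixed/permeabilised, stained for phospho-histone 3 and propidium iodide, and read by flow cytometry gated on lymphocytes. % mitosis inhibition vs 0.5% DMSO vehicle.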

p38 MAPKα isoform (MAPK14), sequence (Q16539 whole entry, canonical isoform): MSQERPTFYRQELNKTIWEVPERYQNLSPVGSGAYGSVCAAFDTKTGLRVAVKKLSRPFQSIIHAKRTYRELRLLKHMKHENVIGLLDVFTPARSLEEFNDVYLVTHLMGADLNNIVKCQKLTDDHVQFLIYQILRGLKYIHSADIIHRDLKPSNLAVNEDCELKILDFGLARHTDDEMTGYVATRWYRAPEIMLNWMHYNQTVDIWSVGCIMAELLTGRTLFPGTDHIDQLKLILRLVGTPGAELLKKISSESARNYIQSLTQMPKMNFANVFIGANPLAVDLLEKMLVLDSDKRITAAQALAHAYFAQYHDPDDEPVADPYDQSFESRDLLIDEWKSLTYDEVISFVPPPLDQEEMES

Compound | IC50 [1] [nM] | IC50 (c-Src) [nM] | IC50 (Syk) [nM] | IC50 (GSK 3α) [nM] | IC50 (PBMCs [2]) [nM] | IC50 (PBMCs [3]) [nM] | IC50 (PBMCs [4]) [nM] | inhibition at 5 µg/mL (PBMCs [5]) [%]
COc1cc(Nc2cc(Oc3ccc(NC(=O)Nc4cc(C(C)(C)C)cc(CC(N)=O)c4OC)c4ccccc34)ccn2)cc(S(C)(=O)=O)c1 [Example 56, 2-(5-(tert-Butyl)-2-methoxy-3-(3-(4-((2-((3-methoxy-5-(methylsulfonyl)phenyl)amino)pyridin-4-yl)oxy)naphthalen-1-yl)ureido)phenyl)acetamide] | 188 | 83 | > 1430 | 1600 | 1.2 | 234 | 9.5 | 17.6
COc1cc(Nc2cc(Oc3ccc(NC(=O)Nc4cc(C(C)(C)C)cc(OCCO)c4OC)c4ccccc34)ccn2)cc(C(N)=O)c1 [Example 57, 3-((4-((4-(3-(5-(tert-Butyl)-3-(2-hydroxyethoxy)-2-methoxyphenyl)ureido)naphthalen-1-yl)oxy)pyridin-2-yl)amino)-5-methoxybenzamide] | 209 | 98 | > 1500 | 3870 | 1.1 | 92.9 | 7.8 | 50.6
COc1cc(Nc2cc(Oc3ccc(NC(=O)Nc4cc(C(C)(C)C)cc(P(C)(C)=O)c4OC)c4ccccc34)ccn2)cc(S(=O)(=O)N(C)C)c1 [Example 58, 3-((4-((4-(3-(5-(tert-Butyl)-3-(dimethylphosphoryl)-2-methoxyphenyl)ureido)naphthalen-1-yl)oxy)pyridin-2-yl)amino)-5-methoxy-N,N-dimethylbenzenesulfonamide] | 527 | 101 | > 1340 | 7100 | 1.4 | 587 | 3.2 | 2.9
COCCOCCOCCNC(=O)c1cc(Nc2cc(Oc3ccc(NC(=O)Nc4cc(C(C)(C)C)cc(C(=O)NCCN5CCOCC5)c4OC)c4ccccc34)ccn2)cc(OC)c1 [Example 59, 5-(tert-Butyl)-2-methoxy-3-(3-(4-((2-((3-methoxy-5-((2-(2-(2-methoxyethoxy)ethoxy)ethyl)carbamoyl)phenyl)amino)pyridin-4-yl)oxy)naphthalen-1-yl)ureido)-N-(2-morpholinoethyl)benzamide] | 127 | 43 | 560 | 2510 | 1.7 | 55.6 | 2.9 | 30.9
COc1cc(Nc2cc(Oc3ccc(NC(=O)Nc4cc(C(C)(C)C)cc(C(=O)NCCN5CCOCC5)c4OC)c4ccccc34)ccn2)cc(C(=O)NCCN2CCOCC2)c1 [Example 60, 5-(tert-Butyl)-2-methoxy-3-(3-(4-((2-((3-methoxy-5-((2-morpholinoethyl)carbamoyl)phenyl)amino)pyridin-4-yl)oxy)naphthalen-1-yl)ureido)-N-(2-morpholinoethyl)benzamide] | 128 | 35 | 206 | 1700 | 2.4 | 101 | 7 | 47.5
COc1cc(Nc2cc(Oc3ccc(NC(=O)Nc4cc(C(C)(C)C)cc(C(=O)NCCN5CCOCC5)c4OC)c4ccccc34)ccn2)cc(OC)c1 [Example 62, 5-(tert-Butyl)-3-(3-(4-((2-((3,5-dimethoxyphenyl)amino)pyridin-4-yl)oxy)naphthalen-1-yl)ureido)-2-methoxy-N-(2-morpholinoethyl)benzamide] | 482 | 105 | 145 | > 11400 | 2.4 | 24.9 | 4.8 | 54.1
COc1cccc(Nc2cc(Oc3ccc(NC(=O)Nc4cc(C(C)(C)C)cc(C(=O)NCCN5CCOCC5)c4OC)c4ccccc34)ccn2)c1 [Example 63, 5-(tert-Butyl)-2-methoxy-3-(3-(4-((2-((3-methoxyphenyl)amino)pyridin-4-yl)oxy)naphthalen-1-yl)ureido)-N-(2-morpholinoethyl)benzamide] | 811 | 98 | 154 | 7660 | 2.5 | 17.5 | 7.7 | 45.1
COc1cc(Nc2cc(Oc3ccc(NC(=O)Nc4cc(C(C)(C)C)cc(C(=O)NCCN5CC[S+]([O-])CC5)c4OC)c4ccccc34)ccn2)cc(OC)c1 [Example 64, 5-(tert-Butyl)-3-(3-(4-((2-((3,5-dimethoxyphenyl)amino)pyridin-4-yl)oxy)naphthalen-1-yl)ureido)-2-methoxy-N-(2-(1-oxidothiomorpholino)ethyl)benzamide] | 945 | 90 | 156 | 9390 | 2.6 | 62.7 | 13.3 | 32.4
COc1cc(Nc2cc(Oc3ccc(NC(=O)Nc4cc(C(C)(C)C)cc(CC(N)=O)c4OC)c4ccccc34)ccn2)cc(C(=O)NCCN2CC[S+]([O-])CC2)c1 [Example 65, 3-((4-((4-(3-(3-(2-Amino-2-oxoethyl)-5-(tert-butyl)-2-methoxyphenyl)ureido)naphthalen-1-yl)oxy)pyridin-2-yl)amino)-5-methoxy-N-(2-(1-oxidothiomorpholino)ethyl)benzamide] | 17 | 15 | 190 | 1220 | 4.3 | 31.3 | 7.6 | 8.7
COc1cc(Nc2cc(Oc3ccc(NC(=O)Nc4cc(C(C)(C)C)cc(OC(CO)CO)c4OC)c4ccccc34)ccn2)cc(C(N)=O)c1 [Example 66, 3-((4-((4-(3-(5-(tert-Butyl)-3-((1,3-dihydroxypropan-2-yl)oxy)-2-methoxyphenyl)ureido)naphthalen-1-yl)oxy)pyridin-2-yl)amino)-5-methoxybenzamide] | 222 | 54 | 918 | 4280 | 2.2 | 60.9 | 7.7 | 46.4
COc1cc(Nc2cc(Oc3ccc(NC(=O)Nc4cc(C(C)(C)C)cc(CC(N)=O)c4OC)c4ccccc34)ccn2)cc(C(=O)NCCCN2CC[S+]([O-])CC2)c1 [Example 68, 3-((4-((4-(3-(3-(2-Amino-2-oxoethyl)-5-(tert-butyl)-2-methoxyphenyl)ureido)naphthalen-1-yl)oxy)pyridin-2-yl)amino)-5-methoxy-N-(3-(1-oxidothiomorpholino)propyl)benzamide] | 13 | 18 | 143 | 1320 | 3.8 | 40.6 | 8 | -0.6
COc1cc(Nc2cc(Oc3ccc(NC(=O)Nc4cc(C(C)(C)C)cc([S+](C)[O-])c4OC)c4ccccc34)ccn2)cc(C(=O)NCCN2CC[S+]([O-])CC2)c1 (centres unmarked) [Example 69, 3-((4-((4-(3-(5-(tert-Butyl)-2-methoxy-3-(methylsulfinyl)phenyl)ureido)naphthalen-1-yl)oxy)pyridin-2-yl)amino)-5-methoxy-N-(2-(1-oxidothiomorpholino)ethyl)benzamide] | 16 | 12 | 124 | 1960 | 2.3 | 75.7 | 7.6 | 8.9
COc1cc(Nc2cc(Oc3ccc(NC(=O)Nc4cc(C(C)(C)C)cc(CNC(C)=O)c4OC)c4ccccc34)ccn2)cc(C(=O)NCCN2CC[S+]([O-])CC2)c1 [Example 71, 3-((4-((4-(3-(3-(Acetamidomethyl)-5-(tert-butyl)-2-methoxyphenyl)ureido)naphthalen-1-yl)oxy)pyridin-2-yl)amino)-5-methoxy-N-(2-(1-oxidothiomorpholino)ethyl)benzamide] | 25 | 14 | 26 | 1200 | 3.4 | 33.7 | 7.2 | 48.3
